Data on 1 compound can be found in patent publication US20260274810A1, “NOVEL MITOFUSIN INHIBITORS” (ALBERT EINSTEIN COLLEGE OF MEDICINE, priority 2023, published 2026).

Assay [1] deals with MEFs. Description: Mitochondrial membrane potential (TMRE). The format is cell-based, mouse. As for the experimental part: Mitochondrial depolarization assay (mtΔΨ). MEFs (10^4 cells/well) were seeded in a 96-well black plate and treated with MASM7 or MFI8 for 6 hrs. Following treatments, cells were stained with 250 nM TMRE (Sigma; Cat. 87917) for 20 min at 37° C. Subsequently, cells were washed with thrice with PBS. Fluorescence intensity was detected by a M100 microplate reader (TECAN, Ex: 540 nm/Em: 579 nm).

The next assay concerns caspase-3/7 in MEFs. Briefly: Caspase-3/7 activation assay. The format is cell-based, mouse. As for the experimental part:
(§1) Caspase-3/7 activation assay. Cells (5×10^3 cells/well) were seeded in a 96-well white plate and treated with MASM7, MFI8. Caspase 3/7 activation was measured after 6 hr by addition of the Caspase-Glo 3/7 reagent according to the manufacturer's protocol (Promega). Luminescence was detected by a F200 PRO microplate reader (TECAN). Caspase assays were performed in at least triplicate and the data normalized to vehicle-treated control wells. Dilutions of MASM7 or MFI8 were performed using a TECAN D300e Digital Dispenser from 10 mM stocks.

The subject of assay [2] is U2OS cells. Briefly: Mitochondrial fusion in U2OS cells. The format is cell-based. As for the experimental part: Measurement of mitochondrial aspect ratio (Mito AR). Images that depict stained mitochondria with mitotracker green were analyzed using FIJI We measured for each mitochondrion its length and width. Then, we divided the length by the width for each mitochondrion to get its mitochondrial aspect ratio. >200 mitochondria were measured per treatment.

Assay [3] relates to MEFs. Description: DNA damage, γH2AX immunofluorescence. It is filed as cell-based, mouse. As for the experimental part: Immunofluorescent analysis and microscopy. Cells were treated with MASM7, MFI8 and or Q-VD-OPh at ~70% confluence for 6 h. After treatments, cells were washed with PBS and fixed with 4% PFA for 15 min. Then cells were permeabilized with 0.1% Triton X-100 in PBS for 10 min. Cells were blocked with 5% BSA in PBS-T and incubated overnight with primary antibodies as indicated; γH2AX (Sigma; 05-636, 1:100 dilution). After incubation with primary antibodies, cells were washed with PBS and incubated with the appropriate mouse secondary antibody (ThermoFisher Scientific; A-11001) in the blocking solution. After PBS washes, coverslips were dipped in water and mounted on glass slides using Vectashield containing DAPI (Vector laboratories). Images were taken with Leica SP5 inverted confocal microscope. Data were analyzed with ImageJ.

The subject of assay [4] is U2OS cells. Description: Minority MOMP imaging. The format is cell-based. Particulars: U2OS cells expressing CytoGFP and MitoCherry, 3 h. The protocol: Minority MOMP. U2OS cells (100,000) were seeded onto glass coverslips and transfected with 250 ng each of CytoGFP and Mito-mCherry as previously described 39. 16 h after transfection, cells were treated with compounds for 3 h and then fixed in 4% paraformaldehyde. Cells were imaged on a Zeiss LSM880 with Airyscan using a 63×1.4 NA objective. Subsequent to acquisition, images were processed using the Airyscan processing function in ZEN software. Minority MOMP was quantified by manually scoring the co-localisation of CytoGFP and mito-mCherry.

Assay [5] has as its system MEFs. Briefly: Metabolomics (TCA cycle, NAD/NADH). The format is cell-based, mouse. As for the experimental part: Metabolomics. MEFs were treated with MASM7 and MFI8. Cells were harvested using a cell scraper and centrifuged at 1200 rpm in 4° C. for 3 min. Each cell pellet sample was suspended into 250 to 700 μL of 80% aqueous methanol in an Eppendorf tube. The samples were vortex mixed for 15 s and sonicated in an ice-water bath for 5 min, followed by centrifugal clarification at 15,000 rpm and 5° C. in an Eppendorf 5424R centrifuge. The clear supernatants were collected. A standard stock solution of TCA cycle carboxylic acids, NAD and NADH was prepared in 80% methanol as S1. This standard solution S1 was serially diluted 1 to 4 (v/v) with the same solvent to make standard solutions S2 to S10. 20 μL of each standard solution and an aliquot of the clear supernatant from each cell was mixed with 20 μL of an internal standard solution containing 9 ^13C- or deuterium labeled analogues of the TCA cycle carboxylic acids (except isocitric acid), 20 μL of 200 mM 3-NPH solution and 20 μL of 150 mM of EDC solution. The mixtures were allowed to react at 30° C. for 30 min. After reaction, 120 μL of water was added to each solution. 10 μL of the resultant solutions was injected into a C18 UPLC column to quantitate the TCA cycle carboxylic acids by UPLC-MRM/MS with (−) ion detection, according to the procedure we described in a publication.

The test system of assay [6] is MEFs. Description: Mitochondrial respiration in cellulo (OCR). The following applies: WT MEFs; MASM7 1 μM or MFI8 20 μM, 6 hrs. The format is cell-based, mouse. As for the experimental part:
Mitochondrial respiration in cellulo. Mitochondrial oxygen consumption rates (OCR) were assessed using a XF24 Analyzer (Seahorse Biosciences, Billerica MA, USA). In brief, 3×10^4 MEFs were cultured in a XF24 cell culture microplate containing DMEM supplemented with 10% fetal bovine serum. Cells were treated with MASM7 (1 μM) or MFI8 (20 μM) 6 hrs prior to OCR analysis. Mitochondrial respiration was assessed by the sequential addition of oligomycin (1 μM), carbonyl cyanide-4-(trifluoromethoxy)phenylhydrazone (FCCP, 2 μM) and rotenone (1 μM)-antimycin (1 μM) as previously reported. OCR was normalized to cell number or total protein content per well for each condition tested.

In a further assay the test system is MOLM13 cells. Briefly: Caspase 3/7 activation with AMG-176. The format is cell-based. Particulars: increasing concentrations of AMG-176 and MFI8. The protocol:
as §1

The subject of another assay is cells. Briefly: Cell viability assay (CellTiter-Glo). It is filed as cell-based. Particulars: 72 hours. As for the experimental part: Cell viability assay. Cells (5×10^3 cells/well) were seeded in a 96-well white plate and treated with serial dilutions of MASM7 or MFI8. Cell viability was assayed after 72 hrs by addition of CellTiter-Glo reagent according to the manufacturer's protocol (Promega). Luminescence was measured using a F200 PRO microplate reader (TECAN). Viability assays were performed in at least triplicate and the data normalized to vehicle-treated control wells. Dilutions of MASM7 or MFI8 were performed using a TECAN D300e Digital Dispenser from 10 mM stocks.
A general note: Cellular ATP, detected with luciferase, serves as a proxy for viable cell number.

On to `Cc1cccc(NC(C)c2cc(Cl)ccc2O)c1C` (centres unmarked) [MFI8], for which the mitochondrial membrane potential entry is recorded as “significantly decreased mitochondrial membrane potential” with MEFs [1] (MFN1/MFN2 DKO MEFs reconstituted with WT MFN2) and “concentration responsively decreased mitochondrial membrane potential” with MEFs [1] (WT MEFs, 6 hrs). Also, the caspase-3/7 activity result in the assay with caspase-3/7 in MEFs (6 hr) was “concentration-responsively increased caspase-3/7 activity”; in the assay on caspase-3/7 in MEFs (deletion of MFN1/MFN2) it was “impaired the capacity of MFI8 to increase caspase-3/7 activity”. Also, in the assay with caspase-3/7 in MEFs (deletion of APAF-1), the “caspase 3/7 activity” value was “detrimental for the capacity of MFI8 to increase caspase 3/7 activity”. The mitochondrial fusion result with U2OS cells [2] was “inhibited mitochondrial fusion in U2OS cells”. Besides, the “γH2AX foci / DNA damage” value in the assay on MEFs [3] (MFN1/MFN2 DKO MEFs) is reported as “not in MFN1/MFN2 DKO MEFs”; in the assay on MEFs [3] (WT MEFs, 6 h) it was “increased γH2AX foci”. For the same compound, the MOMP result with U2OS cells [4] is reported as “induced MOMP, albeit at modest levels”. For the same compound, the “metabolites of the TCA cycle” value with MEFs [5] is “markedly reduced several metabolites such as malate, oxaloacetate, and α-ketoglutarate”. In addition, in the assay with MEFs [5], the “total NAD+/NADH ratio” value is listed as “decreased the total NAD^+/NADH ratio”. In the assay on MEFs [6], the “respiration and mitochondrial ATP production” value is “reduced respiration and mitochondrial ATP production”. For the same compound, the “caspase 3/7 activation in combination with AMG-176” value with MOLM13 cells was “sensitizes cells to caspase activation in response to BH3 mimetic (MCL-1 inhibitor) AMG-176 treatment”. Further, the cellular viability entry in the assay on cells is on record as “neither MFI8 nor MASM7 decreased cellular viability”.
